The Kd is a measure of binding affinity in units of concentration.

Activity calls are given as the source filed them. No cut-off for these calls is given here.

The source of these data is ChEMBL document CHEMBL3217476, “Binding region and interaction properties of sulfoquinovosylacylglycerol (SQAG) with human vascular endothelial growth factor 165 revealed by biosensor-based assays” (Medchemcomm, 2011).

Assay [1] has as its target T1, Vascular endothelial growth factor A, long form (Homo sapiens) (UniProt P15692).
T1 sequence (whole entry): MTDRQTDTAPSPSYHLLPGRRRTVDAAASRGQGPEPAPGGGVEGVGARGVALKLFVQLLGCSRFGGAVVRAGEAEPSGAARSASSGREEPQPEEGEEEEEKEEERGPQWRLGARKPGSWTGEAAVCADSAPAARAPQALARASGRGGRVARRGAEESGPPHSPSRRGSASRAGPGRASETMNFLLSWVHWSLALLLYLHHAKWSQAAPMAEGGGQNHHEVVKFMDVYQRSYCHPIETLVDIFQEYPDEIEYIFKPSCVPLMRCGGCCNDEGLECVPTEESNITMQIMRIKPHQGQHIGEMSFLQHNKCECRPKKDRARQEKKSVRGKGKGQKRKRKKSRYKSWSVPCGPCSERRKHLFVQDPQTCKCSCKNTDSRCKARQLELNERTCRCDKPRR
Put plainly: Binding affinity to His-tagged human recombinant full length VEGF165 (amino acid residues A1 to R165) expressed in Escherichia coli BL21 (DE3) cells at 0.125 to 2 uM by surface plasmon resonance assay. For orientation: Surface plasmon resonance follows binding to a sensor surface in real time, without labels.

The target in assay [2] is T2, Vascular endothelial growth factor A, long form (Homo sapiens, UniProt P15692).
T2 sequence (P15692 whole entry): T1 sequence (whole entry)
Put plainly: Binding affinity to His-tagged human recombinant full length VEGF165 (amino acid residues A1 to R165) expressed in Escherichia coli BL21 (DE3) cells by surface plasmon resonance assay.

Assay [3] has as its target Bone morphogenetic protein 2 (Homo sapiens) (UniProt P12643). Put plainly: Binding affinity to human BMP-2 (amino acid residues M1 to R115) at 0.125 to 2 uM by surface plasmon resonance assay.
In assay [4] the target is Angiopoietin-1 (Homo sapiens) (UniProt Q15389). As to the kind of experiment: Binding affinity to human Ang-1 (amino acid residues N21 to F496) at 0.125 to 2 uM by surface plasmon resonance assay.
Assay [5] has as its target Neuropilin-1 (Homo sapiens) (UniProt O14786). As to the kind of experiment: Binding affinity to human NRP1 (amino acid residues M1 to K644) at 0.125 to 2 uM by surface plasmon resonance assay.
The target in assay [6] is Ephrin type-B receptor 4 (Homo sapiens) (UniProt P54760). Put plainly: Binding affinity to human EphB4 (amino acid residues L16 to A539) at 0.125 to 2 uM by surface plasmon resonance assay.
Assay [7] has as its target DNA polymerase lambda (Homo sapiens) (UniProt Q9UGP5). Put plainly: Binding affinity to human DNA polymerase lambda (amino acid residues M1 to R95) by surface plasmon resonance assay.
The target in assay [8] is Ephrin type-B receptor 2 (Homo sapiens) (UniProt P29323). Put plainly: Binding affinity to human EphB2 (amino acid residues V27 to K458) at 0.125 to 2 uM by surface plasmon resonance assay.
Assay [9] concerns the target Pro-epidermal growth factor (Homo sapiens) (UniProt P01133). Put plainly: Binding affinity to human EGF (amino acid residues N1 to R53) at 0.125 to 2 uM by surface plasmon resonance assay.
In assay [10] the target is Insulin-like growth factor 1 (Homo sapiens) (UniProt P05019). Put plainly: Binding affinity to human IGF-1 (amino acid residues G49 to A118) at 0.125 to 2 uM by surface plasmon resonance assay.
For assay [11], the system named is Vascular endothelial growth factor A, long form (Homo sapiens), P15692 [UNDEFINED MUTATION]. As to the kind of experiment: Binding affinity to His-tagged human recombinant truncated del3 VEGF165 (amino acid residues A111 to T142) expressed in Escherichia coli BL21 (DE3) cells at 0.125 to 2 uM by surface plasmon resonance assay.
The target of assay [12] is Vascular endothelial growth factor A, long form (Homo sapiens, UniProt P15692, EX4DEL). Put plainly: Binding affinity to His-tagged human recombinant truncated del4 VEGF165 (amino acid residues C137 to R165) expressed in Escherichia coli BL21 (DE3) cells by surface plasmon resonance assay.
The target in assay [13] is Protein jagged-1 (Homo sapiens) (UniProt P78504). As to the kind of experiment: Binding affinity to human Jagged-1 (amino acid residues S32 to S1046) at 0.125 to 2 uM by surface plasmon resonance assay.
In assay [14] the target is Insulin-like growth factor 1 receptor (Homo sapiens) (UniProt P08069). Put plainly: Binding affinity to human IGF-1 receptor (amino acid residues E31 to N932) at 0.125 to 2 uM by surface plasmon resonance assay.
The target in assay [15] is T1, Vascular endothelial growth factor A, long form (Homo sapiens). Put plainly: Binding affinity to human VEGF121 (amino acid residues A1 to R121) at 0.125 to 2 uM by surface plasmon resonance assay.
The species named for assay [16] is Homo sapiens. Put plainly: Binding affinity to human PDGF-BB (amino acid residues S1 to T110) at 0.125 to 2 uM by surface plasmon resonance assay.
In assay [17] the target is Vascular endothelial growth factor A, long form (Homo sapiens, UniProt P15692, EX2DEL). Put plainly: Binding affinity to His-tagged human recombinant truncated del2 VEGF165 (amino acid residues A111 to R165) expressed in Escherichia coli BL21 (DE3) cells by surface plasmon resonance assay.
Assay [18] addresses Platelet-derived growth factor receptor beta (Mus musculus) (UniProt P05622). Put plainly: Binding affinity to GST-fused mouse PDGFRB (amino acid residues L33 to E133) at 0.125 to 2 uM by surface plasmon resonance assay.
The target in assay [19] is Neurogenic locus notch homolog protein 1 (Homo sapiens) (UniProt P46531). As to the kind of experiment: Binding affinity to human Notch-1 (amino acid residues A19 to Q526) at 0.125 to 2 uM by surface plasmon resonance assay.
The target of assay [20] is TGF-beta receptor type-2 (Homo sapiens) (UniProt P37173). As to the kind of experiment: Binding affinity to human TGFbetaR2 (amino acid residues M1 to D159) at 0.125 to 2 uM by surface plasmon resonance assay.
Assay [21] is filed under the species Homo sapiens. As to the kind of experiment: Binding affinity to human sDLL-4 (amino acid residues S1 to P498) at 0.125 to 2 uM by surface plasmon resonance assay.
Assay [22] has as its target Fibroblast growth factor 1 (Homo sapiens) (UniProt P05230). Put plainly: Binding affinity to human FGF1 (amino acid residues M1 to D141) at 0.125 to 2 uM by surface plasmon resonance assay.
For assay [23], the target named is Vascular endothelial growth factor receptor 2 (Homo sapiens) (UniProt P35968). As to the kind of experiment: Binding affinity to human VEGFR2 (amino acid residues A20 to E764) at 0.125 to 2 uM by surface plasmon resonance assay.
For assay [24], the species on record is Homo sapiens. Put plainly: Binding affinity to human FGFR2 alpha (amino acid residues R22 to E378) at 0.125 to 2 uM by surface plasmon resonance assay.
Assay [25] concerns the target Bone morphogenetic protein receptor type-2 (Homo sapiens) (UniProt Q13873). As to the kind of experiment: Binding affinity to human BMPR2 (amino acid residues A26 to I151) at 0.125 to 2 uM by surface plasmon resonance assay.
For assay [26], the target named is Angiopoietin-1 receptor (Homo sapiens) (UniProt Q02763). Put plainly: Binding affinity to human Tie-2 (amino acid residues A23 to K745) at 0.125 to 2 uM by surface plasmon resonance assay.
The subject of assay [27] is Vascular endothelial growth factor A, long form (Homo sapiens), P15692 [UNDEFINED MUTATION]. Put plainly: Binding affinity to His-tagged human recombinant truncated del1 VEGF165 (amino acid residues A1 to R110) expressed in Escherichia coli BL21 (DE3) cells at 0.125 to 2 uM by surface plasmon resonance assay.
Assay [28] concerns the target T1, Vascular endothelial growth factor A, long form (Homo sapiens). As to the kind of experiment: Binding affinity to human VEGF165 heparin binding domain (amino acid residues A111 to R165) expressed in T7 phage assessed as increase in emergence ratio of del2 T7 phage particles from host Escherichia coli BLT5615 cells by QCM sensorgram analysis. The format is cell-based.

For assay [29] the target is unchanged. As to the kind of experiment: Binding affinity to human VEGF165 C-terminal fragment of heparin binding domain (amino acid residues C137 to R165) expressed in T7 phage assessed as increase in emergence ratio of del4 T7 phage particles from host Escherichia coli BLT5615 cells by QCM sensorgram analysis. In kind it is cell-based.
For assay [30], the target named is Fibroblast growth factor 2 (Homo sapiens) (UniProt P09038). Put plainly: Binding affinity to human FGF2 (amino acid residues A1 to S154) at 0.125 to 2 uM by surface plasmon resonance assay.
Assay [31] has as its target Transforming growth factor beta-2 proprotein (Homo sapiens) (UniProt P61812). Put plainly: Binding affinity to human TGFbeta2 (amino acid residues A1 to S112) at 0.125 to 2 uM by surface plasmon resonance assay.
Assay [32] deals with Epidermal growth factor receptor (Homo sapiens) (UniProt P00533). As to the kind of experiment: Binding affinity to human EGFR (amino acid residues L25 to S645) at 0.125 to 2 uM by surface plasmon resonance assay.
Assay [33] has as its target T1, Vascular endothelial growth factor A, long form (Homo sapiens). As to the kind of experiment: Inhibition of human VEGF165 heparin binding domain (amino acid residues A111 to R165) expressed in T7 phage/NRP1 interaction assessed as rescued phage titer ratio of del2 T7 phage particles at 1 uM preincubated with del2 T7 phage particles by QCM sensorgram analysis.
In assay [34] the target is Vascular endothelial growth factor receptor 1 (Homo sapiens) (UniProt P17948). As to the kind of experiment: Binding affinity to human VEGFR1 (amino acid residues S27 to I328) at 0.125 to 2 uM by surface plasmon resonance assay.
The target of assay [35] is T1, Vascular endothelial growth factor A, long form (Homo sapiens). As to the kind of experiment: Binding affinity to His-tagged human recombinant full length VEGF165 (amino acid residues A1 to R165) expressed in Escherichia coli BL21 (DE3) cells at 1.25 to 20 uM by surface plasmon resonance assay.
Assay [36] has the same target. Put plainly: Inhibition of human VEGF165 heparin binding domain (amino acid residues A111 to R165) expressed in T7 phage/NRP1 interaction assessed as rescued phage titer ratio of del2 T7 phage particles at 10 uM preincubated with del2 T7 phage particles by QCM sensorgram analysis.

Consider `O=S(=O)(O)C[C@H]1O[C@@H](OCC(O)CO)[C@H](O)[C@@H](O)[C@@H]1O` (stereo not given in full), for which the outcome in assay [1] was inactive.

For `CCCCCCCCCCCCCCCCCC(=O)OCC(O)CO[C@@H]1O[C@H](CS(=O)(=O)O)[C@@H](O)[C@H](O)[C@H]1O` (stereo not given in full), the Kd in [2] turned out to be 16000 nM.

Regarding `CCCCCCCCCCCCCCCCCC(=O)OCC(CO[C@@H]1O[C@H](CO)[C@@H](O)[C@H](O)[C@H]1O)OC(=O)CCCCCCCCCCCCCCCCC` (stereo not given in full), in assay [1], the outcome was inactive.

Regarding `CCCCCCCCCCCCCCCCCC(=O)OCC(CO[C@@H]1O[C@H](CS(=O)(=O)O)[C@@H](O)[C@H](O)[C@H]1O)OC(=O)CCCCCCCCCCCCCCCCC` (stereo not given in full), the result in [3], in [4], in assay [5], in [6], in assay [8] and in assay [9] was inactive. Also, the outcome in assay [10], in assay [11], in assay [13], in assay [14], in [15] and in assay [16] was inactive. For the same compound, the result in assay [18], in assay [19], in assay [20], in assay [21], in assay [22] and in assay [23] was inactive. Besides, the outcome in assay [24], in [25], in assay [26], in assay [27], in [30] and in [31] was inactive. Moreover, the outcome in assay [32] and in assay [34] was inactive. The Kd in [7] was determined as 9.9 nM; in assay [12] it was 1400 nM; in assay [17], 0.025 nM; in [2] it was 0.046 nM. Further, the outcome in assay [28] and in assay [29] was Active. Also, in assay [33], the inhibition entry was “Active”.

With `CCCCCCCCCC(=O)OCC(O)CO[C@H]1O[C@H](CS(=O)(=O)O)[C@@H](O)[C@H](O)[C@H]1O` (stereo not given in full), the result in assay [35] was inactive.

For `CCCCCCCCCCCCCCCCCC(=O)OCC(CO[C@H]1O[C@H](CS(=O)(=O)O)[C@@H](O)[C@H](O)[C@H]1O)OC(=O)CCCCCCCCCCCCCCCCC` (stereo not given in full), the Kd in [2] came out at 0.025 nM.

For `CCCCCCCCCCCCCCCCCC(=O)OCC(O)CO[C@H]1O[C@H](CS(=O)(=O)O)[C@@H](O)[C@H](O)[C@H]1O` (stereo not given in full), the inhibition result in [36] is “Active”. In addition, the Kd in assay [2] came out at 18000 nM.
